Reference: patent US20100324123A1, “GLMS RIBOSWITCHES, STRUCTURE-BASED COMPOUND DESIGN WITH GLMS RIBOSWITCHES, AND METHODS AND COMPOSITIONS FOR USE OF AND WITH GLMS RIBOSWITCHES” (Yale University, priority 2006, published 2010)
“Also recorded” adds a separate entry of the source. One block for each molecule: values may come before it.

Key:
glmS ribozymes = details: cited from earlier work
glmS ribozyme [1] = assay: high-throughput fluorescence screen with bimolecular glmS ribozyme (fluorescein/cy3-labeled substrate); type: biochemical, S. aureus; details: for Fl21 h/Flg h: high-throughput fluorescence screen, fluorescence ratio
glmS ribozyme [2] = assay: activity by electrophoretic in-line probing (gel electrophoresis methods); type: binding
[3] = system: glmS ribozyme from B. cereus; assay: glmS ribozyme self-cleavage assay (5'-32P-labeled 200-nucleotide construct, PAGE); type: biochemical, Bacillus cereus; details: for ribozyme activation / self-cleavage (in words): FIG. 2b: 1 mM effector, 30 minutes, FIG. 2c: 100 μM, 50 mM HEPES pH 7.5; for ribozyme self-cleavage activity as fraction of the activity exhibited by GlcN6P: FIG. 2c, each at 100 μM
Description: Differences from GlcN6P can be seen by comparing the structures to GlcN6P. b) Yields of ribozyme cleavage assays using a 200-nucleotide glmS RNA construct incubated with GlcN6P (1) or with various compounds as indicated. 5′ ^32P-labeled precursor (Pre) RNAs were incubated for 30 minutes in the presence of 1 mM effector as noted for each lane. […] Rate constants for the remaining compounds are estimated to be less than 0.001 min^−1.
The molecular recognition characteristics of the glmS ribozyme was found by determining the effects of GlcN6P and various GlcN6P analogs on the self-cleavage activity of a 200-nucleotide glmS ribozyme construct from B. cereus (FIG. 1). KD values for each ligand were determined by plotting ribozyme rate constants versus ligand concentrations (Experimental Section). […] The amine group of the ligand is also known to be essential for ribozyme function (Winkler 2004; McCarthy 2005). […] Therefore, a series of analogs were tested (FIG. 2) to probe the importance of structural conformation of GlcN6P and of individual functional groups on the pyranose ring.
The glmS ribozyme from B. cereus (FIG. 1a) was generated by in vitro transcription as described previously, (Roth 2006) 5′-^32P-radiolabeled, (Lim 2006) and purified by PAGE. Rate constants were established using methods and reaction conditions similar to those described previously (Roth 2006) with the exception that reaction mixtures contained 50 mM HEPES buffer (pH 7.5 at 23° C.) in place of Tris-HCl buffer. Ligand concentrations and incubation times used are defined for each assay. Ribozyme activity was established by quantitating the amounts of cleaved and uncleaved RNAs using a Typhoon imager (Amersham Biosciences).

[4] = target: glmS ribozyme from B. cereus; details: read-out: apparent dissociation constant (KD); cited from earlier work
[5] = target: homologous ribozyme from Bacillus subtilis; details: Bacillus subtilis glmS ribozyme; read-out: apparent dissociation constant (KD); cited from earlier work

SMILES: N[C@H]1C(O)O[C@H](COS(=O)(=O)O)[C@@H](O)[C@@H]1O (stereo partly shown) [glucosamine-6-sulphate]
concentration needed to induce ribozyme activation to the same extent as GlcN6P, relative to GlcN6P (glmS ribozymes): ~100 fold

SMILES: C[N+](C)(C)[C@@H](C=O)[C@@H](O)[C@H](O)[C@H](O)CO [Me3N-Gln, 2-deoxy-2-(trimethylammonio)-D-glucose]
Fl21 h/Flg h (glmS ribozyme [1]): 1.17
Activity by electrophoretic in-line probing (glmS ribozyme [2]): No

SMILES: NCCO [ethanolamine]
ribozyme activation (in words) (glmS ribozymes): orders of magnitude less effective than GlcN6P

melting point: 185 to 187 °C (dec.)
SMILES: C[N+](C)(C)C1C(O)O[C@H](COP(=O)(O)O)C(O)[C@@H]1O (stereo partly shown) [Me3N-Gln 6P, 2-(trimethylammonio)-2-deoxyglucose 6-phosphate]

SMILES: CO[C@@H]1O[C@H](COP(=O)(O)O)[C@@H](O)[C@H](O)[C@H]1N [Compound 5, methyl 2-amino-2-deoxy-β-D-glucose 6-phosphate]
ribozyme activation / self-cleavage (in words) [3]: precludes analog binding
Fl21 h/Flg h (glmS ribozyme [1]): 1.02
Activity by electrophoretic in-line probing (glmS ribozyme [2]): No

SMILES: CC(=O)N[C@H]1C(O)O[C@H](COP(=O)(O)O)[C@@H](O)[C@@H]1O (stereo partly drawn) [AcNGln 6P, N-acetyl-D-glucosamine 6-phosphate]
Fl21 h/Flg h (glmS ribozyme [1]): 2.28
Activity by electrophoretic in-line probing (glmS ribozyme [2]): Weakly

SMILES: N[C@@H](CO)[C@@H](O)[C@H](O)[C@H](O)COP(=O)(O)O [Compound 3, 2-amino-2-deoxy-D-glucitol-6-phosphate]
ribozyme activation / self-cleavage (in words) [3]: no detectable activity
Fl21 h/Flg h (glmS ribozyme [1]): 0.80
Activity by electrophoretic in-line probing (glmS ribozyme [2]): No

SMILES: Cl.N[C@H]1C(O)O[C@H](CO)[C@@H](O)[C@@H]1O (stereo partly drawn) [Gln com, D-(+)-glucosamine hydrochloride, reference compound]
Fl21 h/Flg h (glmS ribozyme [1]): 1.87
Activity by electrophoretic in-line probing (glmS ribozyme [2]): Yes
GlcN6P bound by the ribozyme more tightly than glucosamine (glmS ribozymes): > 1000 fold
loss of ligand affinity (in words) (glmS ribozymes; removal of the phosphate group): an even greater loss of ligand affinity

SMILES: N[C@@H]1[C@@H](O)[C@H](O)[C@@H](COP(=O)(O)O)O[C@@H]1O [Gln6P com, reference compound]
Fl21 h/Flg h (glmS ribozyme [1]): 2.24
Activity by electrophoretic in-line probing (glmS ribozyme [2]): Yes

SMILES: N[C@H]1CO[C@H](COP(=O)(O)O)[C@@H](O)[C@@H]1O [Compound 8, 2-amino-1,5-anhydro-2-deoxyglucitol 6-phosphate]
ribozyme self-cleavage activity as fraction of the activity exhibited by GlcN6P [3]: 1/70
Fl21 h/Flg h (glmS ribozyme [1]): 2.52
Activity by electrophoretic in-line probing (glmS ribozyme [2]): Yes
melting point: 185 to 187 °C (dec.)

SMILES: NC1O[C@H](COP(=O)(O)O)[C@@H](O)[C@H](O)[C@H]1O (stereo partly shown) [Compound 7, 1-amino-1-deoxyglucose 6-phosphate]
ribozyme activation / self-cleavage (in words) [3]: does not support ribozyme cleavage; also recorded: lowest amount of cleavage
Fl21 h/Flg h (glmS ribozyme [1]): 1.00
Activity by electrophoretic in-line probing (glmS ribozyme [2]): No

SMILES: NC1C(O)O[C@H](COP(=O)(O)O)C(O)[C@H]1O (stereo partly shown) [Compound 13, 2-amino-2-deoxyallose 6-phosphate]
ribozyme activation / self-cleavage (in words) [3]: activity that is similar to GlcN6P

SMILES: NC(CO)CO [serinol]
ribozyme activation (in words) (glmS ribozymes): orders of magnitude less effective than GlcN6P

SMILES: NC1C(O)O[C@H](COP(=O)(O)S)C(O)[C@@H]1O (stereo partly drawn) [Compound 4, 2-amino-2-deoxy-D-glucose 6-thiophosphate]
reduction of the rate constant of ribozyme cleavage compared to 1 [3]: approximately two orders of magnitude
Fl21 h/Flg h (glmS ribozyme [1]): 1.11
Activity by electrophoretic in-line probing (glmS ribozyme [2]): No

SMILES: N[C@H]1C(O)O[C@H](COP(=O)(O)O)[C@@H](O)[C@@H]1O (stereo partly shown) [Compound 1, glucosamine-6-phosphate, reference compound]
Fl21 h/Flg h (glmS ribozyme [1]): 3.36
increase of fluorescence intensity of fluoroscein (glmS ribozyme [1]; ~160 μM glucosamine-6-phosphate, minimum of 10 hours incubation): ~4 fold
Activity by electrophoretic in-line probing (glmS ribozyme [2]): Yes
Kd [4]: ~200 µM
Kd [5]: ~200 µM

SMILES: CNC1C(O)O[C@H](COP(=O)(O)O)C(O)[C@@H]1O (stereo partly shown) [Compound 9, 2-methylamino-2-deoxyglucose 6-phosphate]
ribozyme activation / self-cleavage (in words) [3]: only a modest reduction in efficiency compared to GlcN6P
Fl21 h/Flg h (glmS ribozyme [1]): 3.49
Activity by electrophoretic in-line probing (glmS ribozyme [2]): Yes
melting point: 185 to 187 °C (dec.)

SMILES: N[C@H](C=O)[C@@H](O)[C@H](O)[C@H](O)COP(=O)(O)O [Compound 12, 2-amino-2-deoxy-D-mannose 6-phosphate]
ribozyme self-cleavage activity as fraction of the activity exhibited by GlcN6P [3]: 1/35
Fl21 h/Flg h (glmS ribozyme [1]): 2.89
Activity by electrophoretic in-line probing (glmS ribozyme [2]): Yes

SMILES: CO[C@H]1O[C@H](COP(=O)(O)O)[C@@H](O)[C@H](O)[C@H]1N [Compound 6, methyl 2-amino-2-deoxy-α-D-glucose 6-phosphate]
ribozyme activation / self-cleavage (in words) [3]: precludes analog binding
Fl21 h/Flg h (glmS ribozyme [1]): 1.07
Activity by electrophoretic in-line probing (glmS ribozyme [2]): No

SMILES: N[C@@H](C=O)[C@@H](O)[C@@H](O)[C@H](O)COP(=O)(O)O [Compound 2, 2-amino-2-deoxy-D-galactose 6-phosphate]
ribozyme activation / self-cleavage (in words) [3]: does not induce activity
Fl21 h/Flg h (glmS ribozyme [1]): 1.69

SMILES: O=C[C@H](O)[C@@H](O)[C@H](O)[C@H](O)COP(=O)(O)O [glucose-6-phosphate]
ribozyme activation (in words) (glmS ribozymes): completely fails to trigger ribozyme action
